Measurements as given in US9605004B2, “Chemical compounds” (SYNGENTA LIMITED, priority 2013, dated 2017).

Tests used:
[1] = system: a variety of test species; assay: Pre-emergence herbicidal activity (Example 8a, Table 2); format: in vivo; design: key: 0 = no damage to plant, 5 = total damage to plant; details: application pre-emergence, rate 1000 g/ha, evaluated after 13 days
Procedure, shortened: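 Compounds are applied pre-emergence as an aqueous spray, formulated in 50:50 acetone/water containing 0.5% Tween 20, to pots sown one day earlier. Plants grow in a controlled glasshouse and are scored 13 days later for damage from 0 to 5.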

[2] = system: a variety of test species; assay: Post-emergence herbicidal activity (Example 8b, Table 3); format: in vivo; details: application post-emergence, rate 1000 g/ha, evaluated after 13 days, scale 0-5; for Herbicidal damage score, ABUTH: Abutilon theophrasti; for Herbicidal damage score, ALOMY: Alopecurus myosuroides; for Herbicidal damage score, AMARE: Amaranthus retroflexus; for Herbicidal damage score, ECHCG: Echinochloa crus-galli; for Herbicidal damage score, SETFA: Setaria faberi; for Herbicidal damage score, ZEAMX: Zea mays
Procedure, shortened: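 Damage was rated 0-5 (5 = total) 13 days after a post-emergence spray of acetone/water (50:50) plus 0.5% Tween 20 formulation. Plants were sprayed at 8 days' growth and kept at 24/16° C, 14 h light, 65% humidity, watered twice daily.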

Compound | Pre-emergence herbicidal activity, damage score ABUTH [1] | Pre-emergence herbicidal activity, damage score ALOMY [1] | Pre-emergence herbicidal activity, damage score AMARE [1] | Pre-emergence herbicidal activity, damage score ECHCG [1] | Pre-emergence herbicidal activity, damage score SETFA [1] | Pre-emergence herbicidal activity, damage score ZEAMX [1] | Herbicidal damage score, ABUTH [2] | Herbicidal damage score, ALOMY [2] | Herbicidal damage score, AMARE [2] | Herbicidal damage score, ECHCG [2] | Herbicidal damage score, SETFA [2] | Herbicidal damage score, ZEAMX [2]
COC1=C(C)C(O)N(c2cc3n(n2)CCC3(C)C)C1=O (stereo not drawn) [Compound R1] | 5 | 4 | 5 | 5 | 5 | 4 | 5 | 5 | 5 | 5 | 5 | 5
COC1=C(C)C(O)N(c2cc3n(n2)CCCC3(C)C)C1=O (stereo not drawn) [Compound R2] | 5 | 4 | 5 | 5 | 5 | 4 | 5 | 5 | 5 | 5 | 5 | 4
COC1=C(OC)C(O)N(c2cc(C(C)(C)C)n(C)n2)C1=O (stereo not drawn) [Compound T1] | 5 | 4 | 5 | 5 | 4 | 2 | 5 | 5 | 5 | 5 | 5 | 3
COC1=C(OC)C(O)N(c2cc(C(F)(F)F)n(C)n2)C1=O (stereo not drawn) [Compound T2] | 5 | 4 | 4 | 5 | 5 | 4 | 5 | 5 | 5 | 5 | 5 | 5
COC1=C(OC)C(O)N(c2cc3n(n2)CCC3(C)C)C1=O (stereo not drawn) [Compound W1] | 5 | 4 | 5 | 4 | 5 | 3 | 5 | 5 | 5 | 5 | 5 | 5
COC1=C(OC)C(O)N(c2cc3n(n2)CCCC3(C)C)C1=O (stereo not drawn) [Compound W2] | 5 | 4 | 5 | 4 | 5 | 4 | 5 | 5 | 5 | 5 | 5 | 5
